From paper PMC4294347, “Therapeutic potential of ERK5 targeting in triple negative breast cancer” (Oncotarget, 2014)

Target: T1, ERK5 (Homo sapiens, UniProt Q13164)
T1 construct: gene MAPK7; endogenous ERK5 immunoprecipitated from EGF-treated MDA-MB231 cells
Assay: in vitro autophosphorylation kinase assay on immunoprecipitated active ERK5, Western blot mobility-shift readout
Assay type: biochemical

T1 sequence (Q13164 2-816): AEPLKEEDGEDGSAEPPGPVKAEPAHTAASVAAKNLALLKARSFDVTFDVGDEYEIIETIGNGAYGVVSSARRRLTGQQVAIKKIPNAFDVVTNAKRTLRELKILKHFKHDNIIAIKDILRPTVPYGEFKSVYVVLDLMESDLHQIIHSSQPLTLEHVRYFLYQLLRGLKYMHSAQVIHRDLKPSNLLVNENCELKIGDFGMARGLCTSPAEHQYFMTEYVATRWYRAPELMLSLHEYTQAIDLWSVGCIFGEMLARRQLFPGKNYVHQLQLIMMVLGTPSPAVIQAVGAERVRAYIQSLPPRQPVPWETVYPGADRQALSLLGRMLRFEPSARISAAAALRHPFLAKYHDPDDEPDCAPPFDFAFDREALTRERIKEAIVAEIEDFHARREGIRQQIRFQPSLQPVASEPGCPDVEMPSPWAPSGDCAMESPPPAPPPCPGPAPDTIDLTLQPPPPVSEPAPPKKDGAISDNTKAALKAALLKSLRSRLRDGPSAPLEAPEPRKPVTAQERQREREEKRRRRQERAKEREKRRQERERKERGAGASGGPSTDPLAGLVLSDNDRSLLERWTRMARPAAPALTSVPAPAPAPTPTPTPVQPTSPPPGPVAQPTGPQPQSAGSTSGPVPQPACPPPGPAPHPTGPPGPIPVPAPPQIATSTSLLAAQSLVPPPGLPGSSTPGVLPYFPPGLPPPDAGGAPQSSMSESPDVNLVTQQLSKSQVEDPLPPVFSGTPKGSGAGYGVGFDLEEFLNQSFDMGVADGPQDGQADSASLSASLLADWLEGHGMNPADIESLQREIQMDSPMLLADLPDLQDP

- IC50: 100 nM
SMILES: CN1C/C=C/CCOc2cccc(c2)-c2ccnc(n2)Nc2cccc(c2)C1 [TG02]
